Assays:
[1] = test system: fatty acid synthesis in the liver; experiment: Hepatic fatty acid synthesis from [1-14C]acetic acid in fasted/re-fed mice (fatty liver model); format: in vivo, mice (male C57BI/6J); details: re-fed mice after 48 h fasting; ibudilast 10 and 100 mg/kg orally twice a day (FIG. 1); vs. vehicle
Source text: In NAFLD, it is regarded that the increase of the fatty acid synthesis in the liver is an important factor involved in the fatty liver formation (Shinji, T., et al. 2005. J. Clin. Invest. 115: 1139-1142). Therefore, with reference to methods described in Delzenne et al. (Delzenne, N. M., et al., 1997, J. HepatoL, 26: 880-885) and Tsuchida et al. (Tsuchida. A., et al., 2004, J. Bio. Chem., 279: 30817-30822), effects of ibudilast on the fatty liver were examined by using re-fed mice in which the fatty acid synthesis in the liver is enhanced.
After 48 hours of fasting, male C57BI/6J mice at 8 weeks of age (CLEA Japan, Inc.) were refed for four hours. […]
The mice were refed with standard diet (CE-2, CLEA Japan, Inc.) after 30 minutes of the oral administration after fasting periods of 48 hours, and the mice were anatomized after refeeding periods of four hours. The content of triglyceride and biosynthesis of fatty acid in isolated liver were measured.
The fatty acid synthesis in the liver was measured using the fatty acid synthesis from the acetic acid. […]
After centrifugation, the chloroform layer was obtained as the lower layer. After the dried residue was dissolved to methanol, the scintillation cocktail was mixed with the obtained solution to measure radioactivity using liquid scintillation counter (Tri-Crab 1900CA, PerkinElmer). […]

[2] = test system: content of triglyceride in the liver; experiment: Hepatic triglyceride content in fasted/re-fed mice (fatty liver model); format: in vivo, mice (male C57BI/6J); details: re-fed mice after 48 h fasting; ibudilast 10 and 100 mg/kg orally twice a day (FIG. 2); vs. vehicle
Source text: In NAFLD, it is regarded that the increase of the fatty acid synthesis in the liver is an important factor involved in the fatty liver formation (Shinji, T., et al. 2005. J. Clin. Invest. 115: 1139-1142). Therefore, with reference to methods described in Delzenne et al. (Delzenne, N. M., et al., 1997, J. HepatoL, 26: 880-885) and Tsuchida et al. (Tsuchida. A., et al., 2004, J. Bio. Chem., 279: 30817-30822), effects of ibudilast on the fatty liver were examined by using re-fed mice in which the fatty acid synthesis in the liver is enhanced. After 48 hours of fasting, male C57BI/6J mice at 8 weeks of age (CLEA Japan, Inc.) were refed for four hours. To the vehicle group as a control, 2% (v/v) of PEG-60 hydrogenated castor oil (NIKKOL HCO-60, Nikko Chemicals Co., Ltd.) was orally administrated before fasting and after fasting periods of 12, 24, 36, and 48 hours. To ibudilast groups, […] or 100 mg/kg of ibudilast which was dissolved to 2% (v/v) of PEG-60 hydrogenated castor oil was orally administered before fasting and after fasting periods of 12, 24, 36, and 48 hours. […] The content of triglyceride and biosynthesis of fatty acid in isolated liver were measured. […] The dried extract was dissolved to 4% (v/v) of Triton X-100 and the triglyceride concentration was measured using Liquitech TG-II reagent (Roche Diagnostics K. K.). […]

[3] = test system: triglyceride content in liver; experiment: Hepatic triglyceride content in ob/ob mice (obesity-related fatty liver model); format: in vivo, mice (male ob/ob, B6.V-Lep^ob/J); details: ibudilast 10, 30 or 100 mg/kg orally twice a day for two weeks (FIG. 3), vs. vehicle
Description: Obesity and insulin resistance are regarded as a major pathologic basis in NAFLD (Kristina, M., et al. 2006, J. Clin Endocrinol Metab., 91: 4753-4761). Therefore, effect of ibudilast on fatty liver was evaluated using B6.V-Lep^ob/J mice (ob/ob; Charles River Laboratories Japan, Inc.), a model of obesity-related insulin resistance and fatty liver. Male ob/ob mice (Charles River Laboratories Japan, Inc.) at seven weeks of age were used. To the vehicle group as a control, 2% (v/v) of PEG-60 hydrogenated castor oil (NIKKOL HCO-60, Nikko Chemicals Co., Ltd.) was orally administrated twice a day. To ibudilast groups, 10, 30 or 100 mg/kg of ibudilast which was dissolved to 2% (v/v). of PEG-60 hydrogenated castor oil was orally administered twice a day. At 15 to 21 hours after the end of two weeks administration period, the mice were dissected in the fed state. The content of triglyceride in isolated liver was measured. Triglyceride was extracted from the liver by using improved method of Folch et al. (Folch, J., et al. 1957. J. Biol. Chem., 226: 497-509). Tissues were homogenized by using chloroform methanol mixture 2:1 (v/v). […] The dried extract was dissolved to 4% (v/v) of Triton X-100 and the triglyceride concentration was measured using Liquitech TG-II reagent (Roche Diagnostics K. K.). […]

[4] = test system: TNFα mRNA; experiment: TNFα mRNA expression in liver of MCD diet-fed mice (quantitative real-time PCR); format: in vivo, mice (male C57BI/6J); details: ibudilast 10, 30 or 100 mg/kg orally twice a day for 14 days (FIG. 4), relative to 18S rRNA
Description: (§1) Effects of ibudilast on the hepatic inflammation and hepatic fibrosis were examined using methionine- and choline-deficient (MCD) diet-fed mice which induced hepatic inflammation and hepatic fibrosis involved in human pathological conditions like NASH. The MCD diet (Oriental Yeast Co., Ltd.) produced in accordance with the previous report by Okumura et al. (Okumura, K., et al. 2006, Hepatol. Res., 36: 217-228) was administered to male C57BI/6J mice (CLEA Japan, Inc.) at ten weeks of age for six weeks. […] Thereafter, TNFα, MCP-1, IL-1β, TGFβ, and col1a1 mRNA expressions in isolated liver were measured using the quantitative real-time PCR method. The 18S rRNA mRNA expression was used as an internal standard of the quantitative real-time PCR method and similarly measured. […] The quantitative real-time PCR was performed using TaqMan Fast Universal PCR Master Mix (Applied Biosystems) and Applied Biosystems 7500 Fast Real-Time PCR System (Applied Biosystems). […] Moreover, each operation relating to the quantitative real-time PCR was carried out in accordance with the manual attached to each reagent, kits and device. […]

[5] = test system: MCP-1 mRNA; experiment: MCP-1 mRNA expression in liver of MCD diet-fed mice (quantitative real-time PCR); format: in vivo, mice (male C57BI/6J); details: ibudilast 10, 30 or 100 mg/kg orally twice a day for 14 days (FIG. 5), relative to 18S rRNA
Description: as §1

[6] = test system: IL-1β mRNA; experiment: IL-1β mRNA expression in liver of MCD diet-fed mice (quantitative real-time PCR); format: in vivo, mice (male C57BI/6J); details: ibudilast 10, 30 or 100 mg/kg orally twice a day for 14 days (FIG. 6), relative to 18S rRNA
Description: as §1

[7] = test system: TGFβ mRNA; experiment: TGFβ mRNA expression in liver of MCD diet-fed mice (quantitative real-time PCR); format: in vivo, mice (male C57BI/6J); details: ibudilast 10, 30 or 100 mg/kg orally twice a day for 14 days (FIG. 7), relative to 18S rRNA
Description: as §1

[8] = test system: col1a1 mRNA; experiment: col1a1 mRNA expression in liver of MCD diet-fed mice (quantitative real-time PCR); format: in vivo, mice (male C57BI/6J); details: ibudilast 10, 30 or 100 mg/kg orally twice a day for 14 days (FIG. 8), relative to 18S rRNA
Description: as §1

Q: For `CC(C)C(=O)c1c(C(C)C)nn2ccccc12` [Ibudilast, ibudilast], which “fatty acid synthesis in the liver” value [1] is on record?
A: Its value is “decreased”.

Q: What about the “content of triglyceride in the liver” value [2] of the same molecule?
A: Its value is “significantly decreased”.

Q: What about the “triglyceride content in liver” value [3] of the same molecule?
A: Its value is “significantly decreased”.

Q: And the “mRNA expression of TNFα in liver (index of hepatic inflammation)” value [4]?
A: The value was “decrease”.

Q: What about the “mRNA expression of MCP-1 in liver (index of hepatic inflammation)” value [5] of the same molecule?
A: The value was “decrease”.

Q: And the “mRNA expression of IL-1β in liver (index of hepatic inflammation)” value [6]?
A: Its value is “decrease”.

Q: And the “mRNA expression of TGFβ in liver (index of hepatic fibrosis)” value [7]?
A: Its value is “decrease”.

Q: What about the “mRNA expression of collal in liver (index of hepatic fibrosis)” value [8] of the same molecule?
A: Its value is “decrease”.

From patent US20130143913A1, “PROPHYLACTIC OR THERAPEUTIC AGENT FOR NON-ALCOHOLIC STEATOHEPATITIS” (KYORIN PHARMACEUTICAL CO., LTD., priority 2010, published 2013)
